{
  "source": "PubChem BioAssay AID1259409",
  "about": "(Chemical Carcinogenesis Research Information System (CCRIS), 2018)",
  "origin": "cited, not measured here",
  "test_system": "rodent chemically induced tumor inhibition, incidence and multiplicity",
  "test": "CCRIS tumor inhibitor studies",
  "data": [
    {"smiles": "C/C=C/C1=CC2=CC3=C(C(=O)CCCCCCC)C(=O)O[C@@]3(C)C(=O)C2=CO1", "values": [
      {"measurement": "tumour outcome (control, treated, inhibition, significance)", "setting": "Carcinogen: 7,12-DIMETHYLBENZ[A]ANTHRACENE, 57-97-6, Dose [Inhibitor]: 0, 2 UMOL 2/WK FOR 18 WK APPLIED 30 MIN PRIOR TO EACH PROMOTER DOSE BEGINNING 1 WK POST CARCINOGEN DOSE (STUDY DURATION:, Route [Inhibitor]: DERMAL, Species: MOUSE, Strain/Sex: ICR/FEMALE, Target Tissue: Type of Lesion: SKIN: PAPILLOMA, Dose [Carcinogen]: 50 UG ONCE, Promoter: 12-O-TETRADECANOYLPHORBOL-13-ACETATE, 16561-29-8", "result": "100%, 7%, 93%, not calculated"}
    ]},
    {"smiles": "C=CCc1ccc(O)c(OC)c1", "values": [
      {"measurement": "tumour outcome (control, treated, inhibition, significance)", "setting": "Carcinogen: BENZO[A]PYRENE, 50-32-8, Dose [Inhibitor]: 10 MG IN 0.1 ML ACETONE 3/WK ADMINISTERED SIMULTANEOUSLY WITH CARCINOGEN FOR DU RATION OF STUDY (STUDY DURATION: 368 D), Route [Inhibitor]: DERMAL, Species: MOUSE, Strain/Sex: ICR/FEMALE, Target Tissue: Type of Lesion: SKIN: PAPILLOMA, Dose [Carcinogen]: 5 UG IN 0.1 ML ACETONE 3/WK FOR DURATION OF STUDY, Promoter: NONE USED", "result": "14/50 (28%), 4/50 (8%), 71%, not calculated"},
      {"measurement": "tumour outcome (control, treated, inhibition, significance)", "setting": "Carcinogen: BENZO[A]PYRENE, 50-32-8, Dose [Inhibitor]: 10 MG IN 0.1 ML ACETONE 3/WK ADMINISTERED SIMULTANEOUSLY WITH CARCINOGEN FOR DU RATION OF STUDY (STUDY DURATION: 368 D), Route [Inhibitor]: DERMAL, Species: MOUSE, Strain/Sex: ICR/FEMALE, Target Tissue: Type of Lesion: SKIN: SQUAMOUS CARCINOMA, Dose [Carcinogen]: 5 UG IN 0.1 ML ACETONE 3/WK FOR DURATION OF STUDY, Promoter: NONE USED", "result": "10/50 (20%), 2/50 (4%), 80%, not calculated"}
    ]},
    {"smiles": "C[C@@]12C[C@@]3(O)O[C@@H](O1)[C@]1(COC(=O)c4ccccc4)[C@H]3C[C@@]12O[C@@H]1O[C@H](CO)[C@@H](O)[C@H](O)[C@H]1O", "values": [
      {"measurement": "tumour outcome (control, treated, inhibition, significance)", "setting": "Carcinogen: AZOXYMETHANE, 25843-45-2, Dose [Inhibitor]: 0, 0.02% IN DIET IN WK 1-3 OF STUDY FOLLOWED BY BASAL DIET FOR DURATION OF STUDY (STUDY DURATION: 1 YR), Route [Inhibitor]: ORAL, Species: RAT, Strain/Sex: F344/MALE, Target Tissue: Type of Lesion: LARGE INTESTINE: ADENOCARCINOMA, Dose [Carcinogen]: 15 MG/KG BW 1/WK IN WK 1 AND 2 OF STUDY, Promoter: NONE USED", "result": "13/27 (48%), 5/28 (18%), 63%, not significant"},
      {"measurement": "tumour outcome (control, treated, inhibition, significance)", "setting": "Carcinogen: AZOXYMETHANE, 25843-45-2, Dose [Inhibitor]: 0, 0.02% IN DIET IN WK 1-3 OF STUDY FOLLOWED BY BASAL DIET FOR DURATION OF STUDY (STUDY DURATION: 1 YR), Route [Inhibitor]: ORAL, Species: RAT, Strain/Sex: F344/MALE, Target Tissue: Type of Lesion: LARGE INTESTINE: ADENOMA, Dose [Carcinogen]: 15 MG/KG BW 1/WK IN WK 1 AND 2 OF STUDY, Promoter: NONE USED", "result": "6/27 (22%), 9/28 (32%), -45%, not significant"}
    ]}
  ]
}
